Consider 9 compounds from US11246873B2, “Directed differentiation of oligodendrocyte precursor cells to a myelinating cell fate” (The Scripps Research Institute, priority 2011, dated 2022).

“Also recorded” adds a separate entry of the source.

Series [1] relates to rat optic nerve derived OPCs. Kind of series: High content imaging assay of OPC differentiation (MBP immunostaining, OPERA). It is filed as cell-based. The settings on record: OPCs in differentiation medium (2 ng/ml PDGF), 6 days. As for the experimental part: FIG. 1A-C. […] The calculated EC50 values were determined using appropriate Graphpad Prism 5.0 curve fitting software. […] OPCs were plated in 384 well plates at 1000 cells per well in OPC media containing basal PDGF-αα (2 ng/mL) and treated with serial dilutions of compounds. Following six days of compound treatment, cells were fixed and subjected to immunofluorescence analysis using anti-myelin basic protein (MBP) antibody. Image acquisition and quantification of MBP staining was performed using the OPERA imaging system.
FIG. 11A-B. Screen to identify inducers of OPC differentiation. (A) OPCs were maintained as proliferating A2B5-positive cells under basal growth conditions (Neurobasal medium, B27 supplement without Vitamin A, non-essential amino acids, L-Glutamine, 30 ng/ml PDGF). OPCs were plated in basal differentiation media (Neurobasal medium, B27 supplement without Vitamin A, non-essential amino acids, L-Glutamine, 2 ng/ml PDGF), treated with DMSO (<0.1%) or thyroid hormone (1 uM), fixed after 6 days in culture, and stained using antibodies for CNP, O4, or MBP. […] (B) Screen strategy using A2B5 positive OPCs cultured under basal differentiation conditions and treated with compounds for 6 days to identify small molecules that induce the differentiation of OPCs to mature, MBP expressing oligodendrocytes.
FIG. 12A-B. Primary hit confirmation. (A) Dose response assay used to confirm primary screening hits and determine potency (EC50). (EC50) is defined as the concentration that results in a half maximal increase in the percentage of total cells that express MBP as detected by immunostaining. […] Cells were fixed and immunostained using antibodies for MBP. Error bars represent standard deviations from 3 replicate experiments. […]
FIG. 21. […] OPCs were plated in differentiation medium (2 ng/ml PDGF) and treated with various concentrations of compounds for 6 days. Cells were fixed and immunostained for MBP.
A large-scale small molecule screen was conducted to identify small molecules that promote the differentiation of oligodendrocyte precursor cells (OPCs) to a mature myelinating fate. High content imaging was used to detect in-well differentiation of rat optic nerve derived OPCs. Rat optic nerve derived OPCs were expanded en masse in OPC media containing 30 ng/mL PDGFαα. To screen for small molecule inducers of OPC differentiation, OPCs (cultured for fewer than 15 passages) were plated in poly-D-lysine coated 384 well culture plates in OPC Media containing 2 ng/mL PDGFαα and immediately treated with compounds at a final concentration of 6 μM (0.6% DMSO). Compound treated cells were incubated at 37° C., 5% CO2 for 6 days. At the end of 6 days, cells were fixed in 4% paraformaldehyde and subjected to immunofluorescence analysis. Anti-Myelin Basic Protein monoclonal antibody (a.a. 129-138, clone 1 monoclonal antibody, Millipore) (1:1000 dilution) in blocking buffere solution (3% BSA, 0.3% Triton X-100 in PBS) was added to fixed and washed cells and incubated at 4° C. overnight.

The test system of another series is PLP induced EAE mice. How it is done: (A-E) SJL mice were immunized with proteolipid peptide (PLP) and pertussis toxin and monitored daily with scoring on the standard clinical EAE scale (0-5). Compounds were administered daily for the duration of the study in saline at 10 mg/kg via intra-peritoneal injection (0.1 ml), starting on the day of the appearance of clinical EAE symptoms (day 10). […] Mean clinical EAE score and standard error of mean (SEM) are shown for each study group.
FIG. 25. […] EAE was induced in mice using PLP and pertussis toxin. […] Prophylactic dosing is defined as administration of compound commenced on the day of PLP injection. Error bars indicate standard deviation of the mean within each group of 8 mice.
(A-F) EAE was induced in mice using PLP and pertussis toxin. […] Error bars indicate standard deviation of the mean within each group of 8 mice.
(A-F) EAE was induced in mice by injecting PLP in complete Freund's adjuvant (CFA) and pertussis toxin, and the animals were scored daily for clinical severity of disease on a scale of 0-5. […] Error bars indicate standard deviation of the mean within each group of 8-10 mice.
10 week old SJL mice were immunized with PLP emulsion and pertusis toxin to induce EAE. […] Compounds were administered daily via intraperitoneal injection of 100 ul in sterile saline at 10 mg/kg alone or in combination with mycophenolate motefil in sterile saline at pH 5 at 20 mg/kg. Compound administration was initiated at disease onset (day 10) while mycophenolate motefil administration was initiated on Day 14. The mice were scored daily on a standard EAE scale of 0-5.
This model is most commonly used to evaluate the potential efficacy of immunomodulatory agents, but can also be used to determine the effectiveness of promyelinating agents that function by enhancing OPC differentiation (M. Fernandez et al., Proc Natl Acad Sci U.S.A, 101, 16363 (2004); X. Lee et al., J Neurosci, 27, 220 (2007); reviewed in R. J. Franklin, C. Ffrench-Constant, Nat Rev Neurosci, 9, 839 (2008)). […] We next evaluated efficacy when the drug is dosed therapeutically, by starting daily injections at the first sign of disease onset.
For the treatment of MS, an OPC differentiation inducing drug would most likely be introduced clinically as part of a combination therapy with an immunosuppressive drug. […] The former reduces T-cell proliferation and alters cytokine expression (A. Noronha, A. Toscas, M. A. Jensen, J Neuroimmunol, 46, 145 (1993); A. Noronha, A. Toscas, M. A. Jensen, Ann Neurol, 27, 207 (1990)), while the latter is an S1P agonist that regulates T-cell trafficking (V. Brinkmann et al., J Biol Chem, 277, 21453 (2002); V. Brinkmann et al., Nat Rev Drug Discov, 9, 883 (2010)).

In series [2] the test system is OPCs. Kind of series: Immunofluorescence analysis of mature oligodendrocyte markers (MBP, MOG, CNP, GalC, O1, O4). It is filed as cell-based, rat. The settings on record: OPCs treated 6 days. The text has this: FIG. 3. Immunofluorescence analysis of compound treated OPCs using mature oligodendrocyte specific markers. Immunofluorescence staining using specific antibodies for MBP, MOG, and 2′,3′-cyclic nucleotide 3′ phosphodiesterase (CNP). Nuclei were identified using DAPI.
FIG. 4. Immunofluorescence analysis of compound treated OPCs using mature oligodendrocyte specific markers. Immunofluorescence staining using specific antibodies for galactocereberoside (GalC), oligodendrocyte marker O1 (O1) and oligodendrocyte marker O4 (O4). Nuclei were identified using DAPI.
FIG. 14. Compound treatment induces the differentiation of OPCs to mature oligodendrocytes. […] Cells were fixed and immunostained for MBP, MOG, CNP, GalC, O1, or O4.
Immunofluorescence was also used to confirm that the hits were able to induce oligodendrocyte maturation.

The test system of series [3] is OPCs. Kind of series: qRT-PCR of MBP and MOG expression in compound treated OPCs. In kind it is cell-based, rat. The settings on record: EC90 concentrations, 6 days. An excerpt:
FIG. 2A-C. […] (A) Western blot analysis of OPCs treated with compounds at EC90 concentrations for 6 days. Total protein was isolated from cell pellets and probed for myelin basic protein (MBP) and myelin oligodendrocyte glycoprotein (MOG) using specific antibodies. (B-C) Quantitative RT-PCR (qRT-PCR) analysis of OPCs treated with compounds at EC90 concentrations for 6 days. Total RNA was isolated from cell pellets and reverse transcribed. MBP and MOG expression was quantified using specific probes and Taqman-based qRT-PCR. Expression was normalized to the internal controls β-actin and GAPDH. Fold change in gene expression over DMSO treated control cells is plotted for MBP (B) and MOG (C).

The subject of series [4] is OPCs. Kind of series: Western blot of MBP and MOG in compound treated OPCs. The settings on record: OPCs treated 6 days. It is filed as cell-based, rat. An excerpt: FIG. 2A-C. Neurotransmitter receptor modulating agents induce the differentiation of OPCs to a myelinating oligodendrocyte cell fate. (A) Western blot analysis of OPCs treated with compounds at EC90 concentrations for 6 days. Total protein was isolated from cell pellets and probed for myelin basic protein (MBP) and myelin oligodendrocyte glycoprotein (MOG) using specific antibodies. (B-C) Quantitative RT-PCR (qRT-PCR) analysis of OPCs treated with compounds at EC90 concentrations for 6 days. Total RNA was isolated from cell pellets and reverse transcribed. MBP and MOG expression was quantified using specific probes and Taqman-based qRT-PCR. Expression was normalized to the internal controls β-actin and GAPDH. Fold change in gene expression over DMSO treated control cells is plotted for MBP (B) and MOG (C).
FIG. 13. […] After 6 days in culture, cells were analyzed for MBP and MOG expression by Western blot.

The next series relates to muscarinic receptor. Kind of series: Carbachol co-treatment in compound induced OPC differentiation (MBP staining). The settings on record: compounds at EC90 (benztropine 2.3 uM), serial dilutions of carbachol, 6 days. It is filed as cell-based, rat. As for the experimental part:
Following 6 days of treatment, cells were fixed and stained for MBP. Plates were imaged using the OPERA high content screening system and MBP staining was quantified as described. […] OPCs were plated in 384-well plates at 5000 cells per well in media containing basal PDGF-αα. Cells were equilibrated with Ca^2+ sensitive Fluo-3AM® dye in HBSS for 30 min. […] Ca^2+ influx was immediately measured using the FLIPR TETRA® system.
OPCs express mAChRs, predominantly subtypes M1, M3, and M5 (F. Ragheb et al., J Neurochem, 77, 1396 (2001)). […] Activation of M1 and M3 mAChRs is coupled to downstream signal transduction events through phospholipase C, which results in increased intracellular calcium concentrations (F. Ragheb et al., J Neurochem, 77, 1396 (2001)) (FIG. 23C). M2 and M4 mAChR activation inhibits adenylatecyclase, leading to decreased intracellular cAMP levels (C. C. Felder, FASEB J, 9, 619 (1995); M. Lopez-Ilasaca et al., Science, 275, 394 (1997)). […] Acetylcholine is a known regulator of OPC proliferation and, as such, muscarinic receptor subtypes represent a reasonable class of therapeutic targets for the modulation of OPC proliferation and differentiation (F. De Angelis et al., Dev Neurobiol, (2011)).

As for `CCN(CC)CC#CCOC(=O)C(O)(c1ccccc1)C1CCCCC1` (stereo not shown) [oxybutynin], the “induction of OPC differentiation (MBP staining)” value (shortened to “induction of OPC differentiation”) in series [1] is listed as “induced OPC differentiation in a dose dependent manner; also recorded: induced differentiation of OPCs in a dose dependent manner”.

Consider `CN1[C@@H]2CC[C@H]1C[C@@H](OC(=O)C(CO)c1ccccc1)C2` (stereo partly shown) [atropine], for which, in series [1], the “induction of OPC differentiation” value is recorded as “induce OPC differentiation; also recorded: induced OPC differentiation in a dose dependent manner; also recorded: induced differentiation of OPCs in a dose dependent manner”.

Consider `CC(C)(C)NCC(O)c1ccc(O)c(CO)c1` (stereo not shown) [salbutamol], for which the “clinical severity versus vehicle, dosing after disease onset (therapeutic mode)” value in the series with PLP induced EAE mice (compounds 10 mg/kg i.p. daily from first EAE symptoms, mycophenolate 20 mg/kg from day 14) was “significantly decreased clinical severity in the relapse phase”.

In the case of `CCCOC(C(=O)OC1CCN(C)CC1)(c1ccccc1)c1ccccc1` [propiverine], the “induction of OPC differentiation” value in series [1] is listed as “induced OPC differentiation in a dose dependent manner; also recorded: induced differentiation of OPCs in a dose dependent manner”.

In the case of `CCCCCCCCc1ccc(CCC(N)(CO)CO)cc1` [FTY720, fingolimod], the “maximal observed tolerated dose” value in the series with PLP induced EAE mice (EAE mice) was approximately 1 mg/kg.

As for `N[C@@H](Cc1cc(I)c(Oc2ccc(O)c(I)c2)c(I)c1)C(=O)O` [thyroid hormone, triiodothryonine], the “induction of OPC differentiation” value in series [1] is recorded as “induces the differentiation of OPCs into mature oligodendrocytes that express MBP”; in series [1] (listed as T3) it was “results in the differentiation of OPCs to MBP positive oligodendrocytes”. For the same compound, in the series on OPCs [2], the “markers of mature myelinating oligodendrocytes (MBP, MOG, CNP, GalC, O1, O4) by immunofluorescence” value was “expression of mature oligodendrocyte markers”.

In the case of `CC(C)[N+]1(C)[C@@H]2CC[C@H]1C[C@@H](OC(=O)C(CO)c1ccccc1)C2` (stereo partly shown) [ipratropium], the “induction of OPC differentiation” value in series [1] was “induce OPC differentiation; also recorded: induced OPC differentiation in a dose dependent manner; also recorded: induced differentiation of OPCs in a dose dependent manner”.

Take `CN1[C@@H]2C[C@@H](OC(=O)[C@H](CO)c3ccccc3)C[C@H]1[C@@H]1O[C@@H]12` [scopolamine]: the “induction of OPC differentiation” value in series [1] is “induced OPC differentiation in a dose dependent manner; also recorded: induced differentiation of OPCs in a dose dependent manner”.

As to `CN1CCC[C@@H]1CCO[C@](C)(c1ccccc1)c1ccc(Cl)cc1` [clemastine], the “induction of OPC differentiation” value in series [1] is “promote OPC differentiation”. In the series on OPCs [3], the “induction of MBP expression (qRT-PCR) over DMSO” value is “two-fold” and the “induction of MOG expression (qRT-PCR) over DMSO” value is “two-fold”. The “MBP and MOG expression (Western blot)” value with OPCs [4] was “positive”. Further, the “markers of mature myelinating oligodendrocytes (MBP, MOG, CNP, GalC, O1, O4) by immunofluorescence” value with OPCs [2] is given as “confirmed the presence of multiple markers of mature myelinating oligodendrocytes”. Further, in the series on muscarinic receptor, the “effect of carbachol on compound induced OPC differentiation” value was “inhibited; also recorded: dose dependent inhibition”.
